Experiments:
Assay type in all cases: in vivo
[1] = test system: winter wheat (Triticum aestivum); assay: Test C pre-/postemergence greenhouse test, plant response rating 0-100; settings: Postemergence
Summary of the method: (§1)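 Visual 0–100 control scores, taken 13 to 15 days post-application in a greenhouse, reflect treatment preemergence (seed in loam soil with sand) or postemergence (2–18 cm plants in peat moss, vermiculite medium). A dash marks no result.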

[2] = test system: johnsongrass (Sorghum halepense); assay: as above; settings: Postemergence
Summary of the method: as §1

[3] = test system: giant foxtail (Setaria faberii); assay: as above; settings: Postemergence
Summary of the method: as §1

[4] = test system: wild oat (Avena fatua); assay: Test C postemergence greenhouse test, plant response rating 0-100
Summary of the method: (§2)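 First, plants were raised in a sphagnum peat, vermiculite and nutrient medium to 1–4 leaves. Next, formulated test compounds were applied over the foliage. Finally, after 13–15 greenhouse days, injury was compared with controls and scored 0–100.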

[5] = test system: kochia (Kochia scoparia); assay: as above
Summary of the method: as §2

[6] = test system: chickweed (common chickweed, Stellaria media); assay: as above
Summary of the method: as §2

[7] = test system: pigweed (Amaranthus retroflexus); assay: Test A pre-/postemergence greenhouse herbicide test, visual injury rating 0-100; settings: 1000 g ai/ha
Summary of the method: (§3)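 Directed soil spray (pre) and foliar spray (post, 1–2 leaf) of solvent/surfactant-formulated compound; greenhouse ~10 d; visual injury 0–100 vs untreated controls.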

[8] = test system: large (Lg) crabgrass (Digitaria sanguinalis); assay: as above; settings: 1000 g ai/ha
Summary of the method: as §3

[9] = test system: wheat (Triticum aestivum); assay: as above; settings: 1000 g ai/ha
Summary of the method: as §3

[10] = test system: corn (Zea mays); assay: as above; settings: 1000 g ai/ha
Summary of the method: as §3

[11] = test system: giant foxtail (Setaria faberii); assay: as above; settings: 1000 g ai/ha
Summary of the method: as §3

[12] = test system: morningglory (Ipomoea spp.); assay: as above; settings: 1000 g ai/ha
Summary of the method: as §3

[13] = test system: barnyardgrass (Echinochloa crus-galli); assay: as above; settings: 1000 g ai/ha
Summary of the method: as §3

[14] = test system: velvetleaf (Abutilon theophrasti); assay: as above; settings: 1000 g ai/ha
Summary of the method: as §3

## ON=C(c1ccccc1)c1c[nH]nc1-c1cc(Cl)cc(Cl)c1 [Compound 50]
[1]; 62 g ai/ha
  Plant response rating (0 to 100), Wheat: 0
[1]; 125 g ai/ha
  Plant response rating (0 to 100), Wheat: 0
[1]; 250 g ai/ha, scale 0 to 100
  Plant response rating, Wheat: 0
[2]; 62 g ai/ha
  Plant response rating (0 to 100), Johnsongrass: 0
[2]; 125 g ai/ha
  Plant response rating (0 to 100), Johnsongrass: 0
[2]; 250 g ai/ha, scale 0 to 100
  Plant response rating, Johnsongrass: 0
[3]; 31 g ai/ha
  Plant response rating (0 to 100), Foxtail, Giant: 0
[3]; 62 g ai/ha
  Plant response rating (0 to 100), Foxtail, Giant: 0
[3]; 125 g ai/ha
  Plant response rating (0 to 100), Foxtail, Giant: 0
[3]; 250 g ai/ha, scale 0 to 100
  Plant response rating, Foxtail, Giant: 0
[4]; 62 g ai/ha
  Plant response rating (0 to 100), Oat, Wild: 0
[4]; 125 g ai/ha
  Plant response rating (0 to 100), Oat, Wild: 0
[4]; 250 g ai/ha, scale 0 to 100
  Plant response rating, Oat, Wild: 0
[5]; 62 g ai/ha
  Plant response rating (0 to 100), Kochia: 60
[5]; 125 g ai/ha
  Plant response rating (0 to 100), Kochia: 65
[5]; 250 g ai/ha, scale 0 to 100
  Plant response rating, Kochia: 65
[6]; 31 g ai/ha
  Plant response rating (0 to 100), Chickweed: 95
[6]; 62 g ai/ha
  Plant response rating (0 to 100), Chickweed: 95
[6]; 125 g ai/ha
  Plant response rating (0 to 100), Chickweed: 100
[6]; 250 g ai/ha, scale 0 to 100
  Plant response rating, Chickweed: 100
[7]; Postemergence
  Plant response rating (0 to 100 scale), Pigweed: 90
[7]; Preemergence
  Plant response rating (0 to 100 scale), Pigweed: 100
[8]; Postemergence
  Plant response rating (0 to 100 scale), Crabgrass, Large: 0
[8]; Preemergence
  Plant response rating (0 to 100 scale), Crabgrass, Large: 0
[9]; Postemergence
  Plant response rating (0 to 100 scale), Wheat: 0
[9]; Preemergence
  Plant response rating (0 to 100 scale), Wheat: 0
[10]; Postemergence
  Plant response rating (0 to 100 scale), Corn: 0
[10]; Preemergence
  Plant response rating (0 to 100 scale), Corn: 0
[11]; Postemergence
  Plant response rating (0 to 100 scale), Foxtail, Giant: 10
[11]; Preemergence
  Plant response rating (0 to 100 scale), Foxtail, Giant: 0
[12]; Postemergence
  Plant response rating (0 to 100 scale), Morningglory: 0
[12]; Preemergence
  Plant response rating (0 to 100 scale), Morningglory: 0
[13]; Postemergence
  Plant response rating (0 to 100 scale), Barnyardgrass: 0
[13]; Preemergence
  Plant response rating (0 to 100 scale), Barnyardgrass: 0
[14]; Postemergence
  Plant response rating (0 to 100 scale), Velvetleaf: 100
[14]; Preemergence
  Plant response rating (0 to 100 scale), Velvetleaf: 90
